According to ChEMBL document CHEMBL1155035, “Cyathuscavins A, B, and C, new free radical scavengers with DNA protection activity from the Basidiomycete Cyathus stercoreus” (Bioorg Med Chem Lett, 2008):
Active and inactive are the calls of the source. The rule behind the calls is not given here.

Columns and labels:
[1] = tested on: Radical scavenging activity; experiment: Antioxidant activity assessed as DPPH radical scavenging activity after 10 mins; type: functional
[2] = Antioxidant activity assessed as ABTS radical scavenging activity after 12 hrs; type: functional
[3] = Antioxidant activity assessed as superoxide radical anion scavenging activity after 8 mins; type: functional
[4] = Protective effect against Fe2+/H2O2 radical-induced supercoiled DNA breakage at 1 mM

EC50 [1] [µM] | EC50 [2] [µM] | EC50 [3] [µM] | Activity [4] [%] | Structure (SMILES) | Activity [3]
> 100 | > 50 |  |  | C/C=C/c1cc(O)cc(=O)o1 | inactive
19.3 | 14.8 | 21.9 | 70 | C/C=C/c1cc2c(c(=O)o1)-c1c(O)c(O)c(OC)c(C(=O)O)c1CO2 [CYATHUSCAVIN A] | 
13.9 | 9.84 | 25.1 | 90 | C/C=C/c1cc2c(c(=O)o1)-c1c(O)c(O)c(OC)c(C(=O)O)c1C(OC)O2 (stereo not drawn) [CYATHUSCAVIN B] | 
19.6 | 7.08 |  | 70 | C/C=C/c1cc2c(c(=O)o1)-c1c(O)c(O)c(OC)c(C(=O)O)c1C(O)O2 (stereo not drawn) [CYATHUSCAVIN C] | inactive
22.1 | 11.8 |  |  | Cc1c(C)c2c(c(C)c1O)CCC(C)(C(=O)O)O2 (stereo not drawn) [TROLOX] | inactive
